From ChEMBL document CHEMBL1144372, “Novel 2-amino-4-oxo-5-arylthio-substituted-pyrrolo[2,3-d]pyrimidines as nonclassical antifolate inhibitors of thymidylate synthase” (Bioorg Med Chem Lett, 2005) come the findings set out here.

A value given as a limit tells only on which side of the number the result lay.

One assay deals with T1, Dihydrofolate reductase (Homo sapiens, UniProt P00374).
T1 sequence (P00374 whole entry): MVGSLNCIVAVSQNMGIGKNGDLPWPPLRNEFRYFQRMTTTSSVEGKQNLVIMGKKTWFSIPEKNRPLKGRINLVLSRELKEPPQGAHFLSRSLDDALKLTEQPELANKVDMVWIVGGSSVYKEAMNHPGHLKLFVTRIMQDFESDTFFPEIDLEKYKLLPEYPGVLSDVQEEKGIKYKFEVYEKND
Kind of assay: Inhibitory concentration against human dihydrofolate reductase.

Assay [1] is described as follows: Inhibitory concentration against Escherichia coli dihydrofolate reductase.
In assay [2] the target is Thymidylate synthase (Homo sapiens, UniProt P04818).
Sequence of Thymidylate synthase (Homo sapiens, UniProt P04818) (P04818 whole entry): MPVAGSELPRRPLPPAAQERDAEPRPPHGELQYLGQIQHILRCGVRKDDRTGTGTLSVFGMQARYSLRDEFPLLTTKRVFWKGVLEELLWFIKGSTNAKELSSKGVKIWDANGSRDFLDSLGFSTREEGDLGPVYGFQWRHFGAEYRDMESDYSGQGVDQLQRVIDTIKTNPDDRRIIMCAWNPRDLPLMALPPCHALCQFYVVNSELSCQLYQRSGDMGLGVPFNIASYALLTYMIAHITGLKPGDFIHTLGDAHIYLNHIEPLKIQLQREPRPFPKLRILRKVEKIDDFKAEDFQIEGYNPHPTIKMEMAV
Description: Inhibitory concentration against human thymidylate synthase
Assay [3] deals with Thymidylate synthase (Escherichia coli, UniProt C3SWJ7). Kind of assay: Inhibitory concentration against Escherichia coli thymidylate synthase.
Sequence of Thymidylate synthase (Escherichia coli, UniProt C3SWJ7) (C3SWJ7 whole entry): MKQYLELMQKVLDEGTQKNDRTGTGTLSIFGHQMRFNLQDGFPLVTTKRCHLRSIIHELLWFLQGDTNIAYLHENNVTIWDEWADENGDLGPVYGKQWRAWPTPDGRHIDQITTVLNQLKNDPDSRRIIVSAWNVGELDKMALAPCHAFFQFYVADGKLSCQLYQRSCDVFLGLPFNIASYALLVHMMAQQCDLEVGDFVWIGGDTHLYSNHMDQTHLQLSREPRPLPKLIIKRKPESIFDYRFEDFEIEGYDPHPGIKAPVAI
A further assay has as its system MDA-MB-231. Kind of assay: Growth inhibitory concentration against human MDA-MB-231 cells. In kind it is functional.
The test system of the next assay is HT-29. Kind of assay: Growth inhibitory concentration against human HT-29 cells. In kind it is functional.
The next assay relates to MOLT-4. Kind of assay: Growth inhibitory concentration against human MOLT-4 cells. In kind it is functional.

As for `Cc1[nH]c2nc(N)nc(O)c2c1Sc1ccc(C#N)cc1`, the IC50 is > 34 µM on Dihydrofolate reductase, > 34 µM in assay [1] and 0.28 µM against Thymidylate synthase [2].

With `Cc1[nH]c2nc(N)nc(O)c2c1Sc1ccc(Cl)c([N+](=O)[O-])c1`, the values for the IC50 (against Thymidylate synthase [3]; in assay [1]; against Thymidylate synthase [2]) were 23 µM, > 28 µM and 0.46 µM, respectively.

On to `Cc1[nH]c2nc(N)nc(O)c2c1Sc1cccc(Br)c1`, for which the IC50 is > 24 µM against Thymidylate synthase [3], > 28 µM in assay [1] and 1.2 µM against Thymidylate synthase [2].

For the molecule `Cc1[nH]c2nc(N)nc(O)c2c1Sc1ccc(F)cc1`, the IC50 is > 32 µM at Dihydrofolate reductase, > 33 µM in assay [1] and 1.4 µM on Thymidylate synthase [2].

With `Cc1[nH]c2nc(N)nc(O)c2c1Sc1cc([N+](=O)[O-])cc([N+](=O)[O-])c1`, the IC50 was > 23 µM at Thymidylate synthase [3], > 27 µM in assay [1] and 23 µM against Thymidylate synthase [2].

Consider `Cc1[nH]c2nc(N)nc(O)c2c1Sc1ccc(OC(F)(F)F)cc1`, for which the IC50 against Thymidylate synthase [3] was > 23 µM; in assay [1], > 28 µM; at Thymidylate synthase [2], 2.3 µM.

For the molecule `Cc1[nH]c2nc(N)nc(O)c2c1Sc1cccc(Cl)c1`, the IC50 at Dihydrofolate reductase is > 32 µM; in assay [1], > 33 µM; against Thymidylate synthase [2] it was 1.4 µM.

Consider `Cc1[nH]c2nc(N)nc(O)c2c1Sc1ccc(F)c(Cl)c1`, for which the results for the IC50 (on Dihydrofolate reductase; in assay [1]; against Thymidylate synthase [2]) were > 31 µM, > 31 µM and 0.83 µM, respectively.

`Cc1[nH]c2nc(N)nc(O)c2c1Sc1ccc(Br)c(Cl)c1`: the IC50 was > 26 µM at Dihydrofolate reductase, > 26 µM in assay [1] and 0.22 µM on Thymidylate synthase [2].

For `Cc1[nH]c2nc(N)nc(O)c2c1Sc1ccc(Br)c([N+](=O)[O-])c1`, the GI50 with MDA-MB-231 was 3.28 µM; in the assay with MDA-MB-231 (Homo sapiens, MDA-MB-231) it was 6.55 µM; with HT-29, 6.18 µM; with MOLT-4, 4.23 µM. Further, the IC50 against Thymidylate synthase [3] is 11 µM; in assay [1] it was > 25 µM; against Thymidylate synthase [2], 0.21 µM.

Regarding `Cc1[nH]c2nc(N)nc(O)c2c1Sc1ccc(C(F)(F)F)cc1`, the concentration for half-maximal inhibition (IC50) at Dihydrofolate reductase is > 29 µM; in assay [1] it was > 29 µM; on Thymidylate synthase [2] it was 0.8 µM.

On to `Cc1[nH]c2nc(N)nc(O)c2c1Sc1cc(F)cc(F)c1`, for which the IC50 at Dihydrofolate reductase is > 32 µM; in assay [1], > 32 µM; at Thymidylate synthase [2], 2.7 µM.

For `Cc1[nH]c2nc(N)nc(O)c2c1Sc1ccc(Br)cc1`, the concentration for half-maximal inhibition (IC50) at Dihydrofolate reductase is > 28 µM; in assay [1], 2.8 µM; at Thymidylate synthase [2], 0.46 µM.

With `Cc1[nH]c2nc(N)nc(O)c2c1Sc1cc(Cl)cc(Cl)c1`, the figures for the IC50 (on Thymidylate synthase [3]; in assay [1]; against Thymidylate synthase [2]) were > 24 µM, > 29 µM and 2.4 µM, respectively.

In the case of `Cc1[nH]c2nc(N)nc(O)c2c1Sc1ccc(F)c(F)c1`, the IC50 on Dihydrofolate reductase is > 32 µM; in assay [1], > 32 µM; against Thymidylate synthase [2] it was 0.9 µM.

As for `Cc1[nH]c2nc(N)nc(O)c2c1Sc1cccc(F)c1`, the figures for the IC50 (on Thymidylate synthase [3]; in assay [1]; against Thymidylate synthase [2]) were > 28 µM, > 33 µM and 2.8 µM, respectively.

For the molecule `Cc1[nH]c2nc(N)nc(O)c2c1Sc1cc(C(F)(F)F)cc(C(F)(F)F)c1`, the IC50 against Dihydrofolate reductase was > 25 µM; in assay [1], > 25 µM; against Thymidylate synthase [2] it was > 21 µM.
